Assay results as given in publication PMC12397098, “3-Monothiopomalidomide, a new immunomodulatory imide drug (IMiD), blunts inflammation and mitigates ischemic stroke in the rat” (GeroScience, 2025).
Like-named read-outs stand apart in the source and are kept apart here.

Columns and labels:
[1] = system: MCAo-induced brain infarction; assay: MCAo ischemic stroke: brain infarct volume (TTC); format: in vivo, rat; conditions: 3-MP 10.58 and 21.17 mg/kg I.P. (doses combined), 48 h
[2] = Brain entry in rats (brain and plasma at 5 h); format: in vivo; conditions: male, Fischer 344, rat, brain
Procedure: The animals were euthanized at 5 h post-dosing, and plasma and a brain sample were taken, frozen to − 80 °C, and later assayed for 3-MP by LC–MS/MS.
LC–MS/MS analysis was performed with a Vanquish Flex UHPLC (Thermo Scientific, Waltham MA, USA) and an Orbitrap Exploris 240 mass spectrometer (Thermo Scientific). Samples were separated on a C18 UHPLC column (100 mm × 2.1 mm, 3 μm; Thermo Scientific). The mobile phase A for LC separation was 0.1% formic acid and the mobile phase B was 0.1% formic acid in methanol. The chromatography gradient was initiated at 95% A and 5% B at zero time. This was continued for 1 min and, thereafter, linearly changed to 5% A and 95% B by 9 min. This was then maintained for a further 3 min. The flow rate was 0.3 mL/min, and the injection volume was 2 μl. Mass spectra were acquired using the data-dependent Top 4 MS2 (ddMS2) method with a mass scan (100–1000 m/z) and 120,000 MS resolution.

human PBMCs = assay: LDH in media of LPS-challenged human PBMCs (cellular toxicity); format: cell-based; conditions: 10 ng/ml LPS, 24 h, 3-MP 0 to 30 μM, vs LPS alone
Procedure: Human peripheral blood mononuclear cells (PBMCs), purchased from ATCC (Cat no. PCS-800–011, Lot no. 81215231, Manassas, VA, USA), were washed with ice-cold HBSS (ATCC 30–2213) containing 10% fetal bovine serum (FBS: ATCC 30–2020) and used for the experiment directly. The washed cells were suspended and maintained in RPMI media supplemented with 10% FBS, penicillin 100 U/mL, and streptomycin 100 µg/mL at 37 °C and 5% CO2. Approximately 5 × 10^5 cells were seeded into 24-well plates and allowed to equilibrate for 2 h. Pomalidomide or 3-MP, dissolved in 100% tissue culture grade dimethylsulfoxide (DMSO: Sigma Aldrich, St Louis, MO, USA), was then added to the wells. The final concentrations of drugs were 0.0, 0.6, 1.0, 10, 30, and 60 µM (n = 3–4 for each group). At 1 h after initiation of treatment, the cells were challenged with lipopolysaccharide (LPS, Sigma Aldrich, E.Coli 055:B5, Cat no. L4005-100MG, Lot no. 0000218759, Endotoxin Unit: 500,000 EU/mg, at a concentration of 10 ng/mL), and the media was collected after a further 24 h for evaluation of lactate dehydrogenase (LDH) activity as a marker of drug-induced cellular toxicity and concentrations of nitrite (In Vitro Toxicology Assay Kit, Lactic Dehydrogenase based, Promega, Cat no. G7891, Madison, WI, USA) (Griess Reagent System, Promega, Cat no. G2930) and TNF-α (human TNF-α ELISA MAX™ Deluxe Set Cat no. […]

With `Nc1cccc2c1C(=S)N(C1CCC(=O)NC1=O)C2=O` (centres unmarked) [3-MP, 3-Monothiopomalidomide] the infarct volume ([1]; rat MCAo 60 min + reperfusion, TTC) was 4.32 ± 1.33%, the “reduction of infarct volume versus MCAo + vehicle” value ([1]; rat MCAo) was 56% and the Kp at 5 h ([2]; ip, 13.25 mg/kg, 13.25 mg/kg I.P., read-out: Brain/plasma ratio) was 0.52. For the same compound, the Kp at 5 h ([2]; ip, 26.5 mg/kg, 26.5 mg/kg I.P., read-out: Brain/plasma ratio) was 0.61, the Kp at 5 h ([2]; other: I.P. or P.O., 13.25 or 26.50 mg/kg I.P. or P.O., read-out: brain concentrations as % of concomitant plasma levels) was 0.51 to 0.61 and the Kp at 5 h ([2]; other: I.P. or oral (P.O.), across I.P. and P.O. doses, read-out: brain/plasma concentration ratio) was 0.5 to 0.6. The Kp at 5 h ([2]; po, 26.5 mg/kg, 26.5 mg/kg P.O., read-out: Brain/plasma ratio) was 0.51 and the LDH media levels (human PBMCs) was “without elevating”.
